From ChEMBL document CHEMBL5104135, “Potent and selective TYK2-JH1 inhibitors highly efficacious in rodent model of psoriasis” (Bioorg Med Chem Lett, 2022)
In brackets after ≈: the same amount, converted by molar mass.

Experiments:
Homo sapiens [1] = species: Homo sapiens; assay: Ratio Ki for inhibition of JAK1 (unknown origin) over TYK2 JH1 domain (unknown origin)
Homo sapiens [2] = species: Homo sapiens; assay: Ratio Ki for inhibition of JAK2 (unknown origin) over TYK2 JH1 domain (unknown origin)
Homo sapiens [3] = species: Homo sapiens; assay: Ratio Ki for inhibition of JAK3 (unknown origin) over TYK2 JH1 domain (unknown origin)
[4] = Kinetic solubility of compound at pH 7.4; conditions: buffer
[5] = Efflux ratio of apparent permeability in human Caco-2 cells
[6] = biological target: Non-receptor tyrosine-protein kinase TYK2 (Homo sapiens, UniProt P29597)
Chain of Non-receptor tyrosine-protein kinase TYK2 (P29597 whole entry): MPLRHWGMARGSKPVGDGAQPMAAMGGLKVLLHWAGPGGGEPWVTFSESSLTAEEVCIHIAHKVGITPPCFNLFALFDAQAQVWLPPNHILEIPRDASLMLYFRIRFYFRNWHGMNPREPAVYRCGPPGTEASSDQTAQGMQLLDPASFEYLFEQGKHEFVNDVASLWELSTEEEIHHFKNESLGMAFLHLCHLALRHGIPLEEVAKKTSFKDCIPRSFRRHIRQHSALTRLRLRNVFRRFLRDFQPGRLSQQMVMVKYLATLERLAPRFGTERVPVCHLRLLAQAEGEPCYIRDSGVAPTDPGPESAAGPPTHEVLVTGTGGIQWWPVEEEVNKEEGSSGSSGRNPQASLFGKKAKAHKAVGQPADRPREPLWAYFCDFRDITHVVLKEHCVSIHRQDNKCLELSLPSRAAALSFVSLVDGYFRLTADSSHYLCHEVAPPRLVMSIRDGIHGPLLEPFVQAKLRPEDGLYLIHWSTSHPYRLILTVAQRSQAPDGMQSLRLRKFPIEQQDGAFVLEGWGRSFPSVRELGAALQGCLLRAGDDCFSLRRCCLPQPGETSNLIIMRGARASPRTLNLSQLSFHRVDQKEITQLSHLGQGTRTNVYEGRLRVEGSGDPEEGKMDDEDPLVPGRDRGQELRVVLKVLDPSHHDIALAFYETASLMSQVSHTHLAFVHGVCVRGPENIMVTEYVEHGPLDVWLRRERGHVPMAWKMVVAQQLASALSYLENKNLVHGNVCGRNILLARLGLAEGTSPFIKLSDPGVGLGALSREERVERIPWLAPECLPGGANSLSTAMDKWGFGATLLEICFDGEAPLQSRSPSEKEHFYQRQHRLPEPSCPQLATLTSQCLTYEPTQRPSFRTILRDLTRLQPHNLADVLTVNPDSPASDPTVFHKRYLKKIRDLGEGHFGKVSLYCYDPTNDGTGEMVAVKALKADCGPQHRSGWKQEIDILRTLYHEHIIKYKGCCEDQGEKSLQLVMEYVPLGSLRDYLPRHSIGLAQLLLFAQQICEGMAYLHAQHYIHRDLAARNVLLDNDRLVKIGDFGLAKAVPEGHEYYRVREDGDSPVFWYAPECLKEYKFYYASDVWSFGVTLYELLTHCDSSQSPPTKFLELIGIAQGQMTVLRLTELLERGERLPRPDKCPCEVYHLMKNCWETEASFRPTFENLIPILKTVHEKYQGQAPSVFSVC
Description: Inhibition of TYK2 JH1 domain (unknown origin) measured in presence of 10 uM ATP

[7] = Thermodynamic solubility in fasted simulated intestinal fluid; format: physicochemical; conditions: read-out: Therm_solubility
[8] = Thermodynamic solubility in simulated gastric fluid; format: physicochemical; conditions: read-out: Therm_solubility
Blood [9] = assay: Inhibition of IL-12- induced IFN-gamma production in human whole blood; format: functional, tissue-based; conditions: for IC50: Homo sapiens, Blood
[10] = Plasma protein binding in mouse assessed as unbound fraction
Blood [11] = assay: Inhibition of IL-12- induced IFN-gamma production in mouse whole blood; format: functional, tissue-based; conditions: for IC50: Mus musculus, Blood
[12] = Plasma protein binding in human assessed as unbound fraction

Compound | Ratio Ki (Homo sapiens [1]) | Ratio Ki (Homo sapiens [2]) | Ratio Ki (Homo sapiens [3]) | efflux ratio [5] | other results
O=C1NCc2nc(-c3c(F)cccc3F)cc(Nc3ccc(N4CCC(O)CC4)cn3)c21 | 160 | 120 | 25 | 1.5 | solubility kinetic [4]: 65 µM (≈ 28.4 µg/mL)
CCNC(=O)C(C)(O)c1ccc(Nc2nc(-c3c(F)cccc3F)nc3c2C(=O)NC3)cc1 (stereo in doubt; 13b) [listing 1 of 2 here] | 27 | 123 | 13 | – | –
O=C1NCc2nc(-c3c(F)cccc3F)nc(Nc3ccc(C4CCNC4=O)cc3)c21 (stereo in doubt; 14a) | 37 | 35 | 4 | – | –
O=C1NCc2nc(-c3c(F)cccc3F)nc(Nc3ccc(C4CCCNC4=O)cc3)c21 (stereo in doubt; 15a) | 77 | 83 | 19 | – | –
O=C1NCc2nc(-c3c(F)cccc3F)cc(Nc3ccc(C(=O)N4CCOCC4)cn3)c21 | 16 | 18 | 2.3 | – | –
O=C1NCc2nc(-c3c(F)cccc3F)nc(Nc3ccc(C4CCNC4=O)cc3)c21 (stereo in doubt; 14b) [listing 1 of 2 here] | – | – | – | – | Ki [6]: 1.1 nM
CCNC(=O)Cc1ccc(Nc2cc(-c3c(F)cccc3F)nc3c2C(=O)NC3)nc1 | 39 | 72 | 5.7 | 9.6 | solubility kinetic [4]: 0.6 µM (≈ 0.254 µg/mL)
O=C1NCc2nc(-c3c(F)cccc3F)cc(Nc3ccc(N4CCC(F)(F)CC4)cn3)c21 | 400 | 370 | 32 | 0.68 | solubility kinetic [4]: 2.4 µM (≈ 1.1 µg/mL)
O=C1NCc2nc(-c3c(F)cccc3F)cc(Nc3ccc(C(=O)N4CCCC4)cn3)c21 | 53 | 23 | 3.3 | – | –
CC(C)c1nc(Nc2ccc(C(=O)O)cc2)c2c(=O)[nH]ccc2n1 | 5.3 | 2.5 | 1.3 | – | –
N#Cc1cccc(F)c1-c1cc(Nc2ccc(N3CCOCC3)cn2)c2c(n1)CNC2=O | 27 | 26 | 170 | – | –
O=C1NCc2nc(-c3c(F)cccc3F)nc(Nc3ccc(CC(=O)N4CCOCC4)cc3)c21 | 59 | 47 | 8.8 | – | –
O=C1NCc2nc(-c3c(F)cccc3F)cc(Nc3ccc(N4CCOCC4)cn3)c21 | 160 | 120 | 25 | 0.58 | solubility kinetic [4]: 12 µM (≈ 5.08 µg/mL)
O=C1NCc2nc(-c3c(F)cccc3F)cc(Nc3ccc(C(=O)N4CC[C@H](O)C4)cc3)c21 | 110 | 110 | 14 | 60 | solubility kinetic [4]: 290 µM (≈ 131 µg/mL)
O=C1NCc2nc(-c3c(F)cccc3F)cc(Nc3ccc(N4CCOCC4=O)cn3)c21 | 80 | 77 | 13 | 7.8 | solubility thermodynamic [7]: 24 µM (≈ 10.5 µg/mL); solubility thermodynamic [8]: 418 µM (≈ 183 µg/mL); solubility kinetic [4]: 8.9 µM (≈ 3.89 µg/mL)
CCNC(=O)c1ccc(Nc2cc(-c3c(F)cccc3Cl)nc3c2C(=O)NC3)nc1 | 7.3 | 12 | 1.8 | – | –

Compound | Ratio Ki (Homo sapiens [1]) | Ratio Ki (Homo sapiens [2]) | Ratio Ki (Homo sapiens [3]) | efflux ratio [5] | other results
CCNC(=O)C(C)(O)c1ccc(Nc2nc(-c3c(F)cccc3F)nc3c2C(=O)NC3)cc1 (stereo in doubt; 13b) [listing 2 of 2 here] | – | – | – | – | Ki [6]: 3.4 nM
CCNC(=O)c1ccc(Nc2cc(-c3c(F)cccc3C#N)nc3c2C(=O)NC3)nc1 | 6.5 | 15 | 69 | – | –
NC(=O)c1cnc(-c2c(F)cccc2F)nc1Nc1ccc(CC(=O)O)cc1 | 7.8 | 74 | 95 | – | –
O=C1NCc2nc(-c3c(F)cccc3F)cc(Nc3ccc(C(=O)N4CCOCC4)cc3)c21 | 92 | 35 | 8.6 | 9.1 | fIC50 (Blood [9]): 0.16 µM; IC50 (Blood [9]): 620 nM; fraction unbound [10]: 0.24; solubility thermodynamic [7]: 148 µM (≈ 66.7 µg/mL); fIC50 (Blood [11]): 0.86 µM; IC50 (Blood [11]): 3600 nM; solubility kinetic [4]: 170 µM (≈ 76.6 µg/mL); fraction unbound [12]: 0.25
O=C1NCc2nc(-c3c(F)cccc3F)nc(Nc3ccc(C4CCNC4=O)cc3)c21 (stereo in doubt; 14b) [listing 2 of 2 here] | 55 | 96 | 15 | – | –
CCNC(=O)C(C)(O)c1ccc(Nc2nc(-c3c(F)cccc3F)nc3c2C(=O)NC3)cc1 (stereo in doubt; 13a) [listing 1 of 2 here] | – | – | – | 32 | –
O=C1NCc2nc(-c3c(F)cccc3F)nc(Nc3ccc(C4CCCNC4=O)cc3)c21 (stereo in doubt; 15b) [listing 1 of 2 here] | – | – | – | – | Ki [6]: 3.9 nM
CCNC(=O)Cc1ccc(Nc2nc(-c3c(F)cccc3F)nc3c2C(=O)NC3)cc1 | 17 | 30 | 4.6 | 6.4 | solubility kinetic [4]: 1.2 µM (≈ 0.508 µg/mL)
O=C1NCc2nc(-c3c(F)cccc3F)nc(Nc3ccc(CC(=O)N4CCN(CC(F)F)CC4)cc3)c21 | 31 | 24 | 2.3 | – | –
CCNC(=O)C(C)(O)c1ccc(Nc2nc(-c3c(F)cccc3F)nc3c2C(=O)NC3)cc1 (stereo in doubt; 13a) [listing 2 of 2 here] | 87 | 300 | 43 | – | –
CN1CCN(C(=O)Cc2ccc(Nc3nc(-c4c(F)cccc4F)nc4c3C(=O)NC4)cc2)CC1 | 89 | 52 | 10 | – | –
O=C1NCc2nc(-c3c(F)cccc3F)nc(Nc3ccc(C4CCCNC4=O)cc3)c21 (stereo in doubt; 15b) [listing 2 of 2 here] | 130 | 84 | 10 | – | –
CCNC(=O)c1ccc(Nc2cc(-c3c(F)cccc3F)nc3c2C(=O)NC3)nc1 | 84 | 170 | 24 | 7.2 | fIC50 (Blood [9]): 0.27 µM; IC50 (Blood [9]): 1600 nM; fraction unbound [10]: 0.16; solubility thermodynamic [7]: 15 µM (≈ 6.14 µg/mL); fIC50 (Blood [11]): 0.19 µM; IC50 (Blood [11]): 1200 nM; solubility thermodynamic [8]: 255 µM (≈ 104 µg/mL); solubility kinetic [4]: 3.1 µM (≈ 1.27 µg/mL); fraction unbound [12]: 0.17
NC(=O)c1ccc(NC(=O)c2ccc[nH]c2=O)cc1 | 1.4 | 1.1 | 2.3 | – | –
COc1ccc(Nc2nc(-c3c(F)cccc3F)nc3c2C(=O)NC3)cc1 | 25 | 240 | 11 | – | –
